# Target: T1, Muscle, skeletal receptor tyrosine-protein kinase (Homo sapiens) (UniProt O15146)
# T1 sequence (whole entry): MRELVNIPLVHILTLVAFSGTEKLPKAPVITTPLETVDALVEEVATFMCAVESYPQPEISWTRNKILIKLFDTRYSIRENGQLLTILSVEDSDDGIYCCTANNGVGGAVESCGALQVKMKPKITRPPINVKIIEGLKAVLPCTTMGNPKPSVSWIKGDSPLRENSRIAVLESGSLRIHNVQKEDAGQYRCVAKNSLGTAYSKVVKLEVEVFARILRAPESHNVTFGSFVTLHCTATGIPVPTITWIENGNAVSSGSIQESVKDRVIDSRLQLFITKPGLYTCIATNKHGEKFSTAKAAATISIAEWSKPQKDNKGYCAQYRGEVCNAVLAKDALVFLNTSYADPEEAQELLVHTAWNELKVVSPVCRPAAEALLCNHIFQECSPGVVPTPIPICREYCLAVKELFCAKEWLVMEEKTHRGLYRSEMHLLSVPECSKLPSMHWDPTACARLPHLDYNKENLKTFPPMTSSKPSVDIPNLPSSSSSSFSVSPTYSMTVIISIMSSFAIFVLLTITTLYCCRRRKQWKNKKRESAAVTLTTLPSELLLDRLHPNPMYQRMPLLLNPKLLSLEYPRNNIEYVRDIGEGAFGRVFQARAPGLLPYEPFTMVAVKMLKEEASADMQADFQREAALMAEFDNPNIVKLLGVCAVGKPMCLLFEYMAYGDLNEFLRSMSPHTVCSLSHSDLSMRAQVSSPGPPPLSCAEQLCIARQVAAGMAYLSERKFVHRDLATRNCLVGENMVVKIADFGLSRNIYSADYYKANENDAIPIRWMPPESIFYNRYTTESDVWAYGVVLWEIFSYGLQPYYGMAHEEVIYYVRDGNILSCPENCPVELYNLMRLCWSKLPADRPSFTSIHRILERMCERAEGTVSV
# Assay: Inhibition of MuSK (unknown origin) at 1 uM relative to control
# Conditions: not given
row,Structure (SMILES),inhibition
1,C/C=C/Cn1cc(-c2cc(OC)c(C(=O)N3CCOCC3)cc2OC)c2cc(C)[nH]c2c1=O,3%

# System: MCF7
# Assay: Cytotoxicity against human MCF7 cells measured after 8 days
# Type: functional, cell-based
# Conditions: MCF7, 192 h
row,Structure (SMILES),IC50
1,C/C=C/Cn1cc(-c2cc(OC)c(C(=O)N3CCOCC3)cc2OC)c2cc(C)[nH]c2c1=O,1.34 µM

# System: HCC70
# Assay: Cytotoxicity against human HCC70 cells measured after 8 days
# Type: functional, cell-based
# Conditions: HCC70, 192 h
row,Structure (SMILES),IC50
1,C/C=C/Cn1cc(-c2cc(OC)c(C(=O)N3CCOCC3)cc2OC)c2cc(C)[nH]c2c1=O,2 µM

# System: not listed separately
# Assay: Cytotoxicity against human NCI-H2373 cells measured after 8 days
# Type: functional, cell-based
# Conditions: NCI-H2373, 192 h
row,Structure (SMILES),IC50
1,C/C=C/Cn1cc(-c2cc(OC)c(C(=O)N3CCOCC3)cc2OC)c2cc(C)[nH]c2c1=O,2 µM

# System: not listed separately
# Assay: Cytotoxicity against human NCI-H2810 cells measured after 8 days
# Type: functional, cell-based
# Conditions: NCI-H2810, 192 h
row,Structure (SMILES),IC50
1,C/C=C/Cn1cc(-c2cc(OC)c(C(=O)N3CCOCC3)cc2OC)c2cc(C)[nH]c2c1=O,2 µM

# System: LoVo
# Assay: Cytotoxicity against human LoVo cells measured after 8 days
# Type: functional, cell-based
# Conditions: 192 h
row,Structure (SMILES),IC50
1,C/C=C/Cn1cc(-c2cc(OC)c(C(=O)N3CCOCC3)cc2OC)c2cc(C)[nH]c2c1=O,2 µM

# System: NCI-H1355
# Assay: Cytotoxicity against human NCI-H1355 cells measured after 8 days
# Type: functional, cell-based
# Conditions: NCI-H1355, 192 h
row,Structure (SMILES),IC50
1,C/C=C/Cn1cc(-c2cc(OC)c(C(=O)N3CCOCC3)cc2OC)c2cc(C)[nH]c2c1=O,2 µM

# System: not listed separately
# Assay: Cytotoxicity against human HCC4011 cells measured after 8 days
# Type: functional, cell-based
# Conditions: HCC4011, 192 h
row,Structure (SMILES),IC50
1,C/C=C/Cn1cc(-c2cc(OC)c(C(=O)N3CCOCC3)cc2OC)c2cc(C)[nH]c2c1=O,2 µM

# System: not listed separately
# Assay: Cytotoxicity against human OVCA429 cells measured after 8 days
# Type: functional, cell-based
# Conditions: OVCA429, 192 h
row,Structure (SMILES),IC50
1,C/C=C/Cn1cc(-c2cc(OC)c(C(=O)N3CCOCC3)cc2OC)c2cc(C)[nH]c2c1=O,1.77 µM

# Target: Nucleosome-remodeling factor subunit BPTF (Homo sapiens, UniProt Q12830)
# Assay: Binding affinity to human partial length FALZ (S2791 to H2911 residues) expressed in bacterial expression system by BROMOscan assay
# Conditions: not given
row,Structure (SMILES),Kd
1,C/C=C/Cn1cc(-c2cc(OC)c(C(=O)N3CCOCC3)cc2OC)c2cc(C)[nH]c2c1=O,> 10 µM

# Target: T2, Muscarinic acetylcholine receptor M1 (Homo sapiens) (UniProt P11229)
# T2 sequence (whole entry): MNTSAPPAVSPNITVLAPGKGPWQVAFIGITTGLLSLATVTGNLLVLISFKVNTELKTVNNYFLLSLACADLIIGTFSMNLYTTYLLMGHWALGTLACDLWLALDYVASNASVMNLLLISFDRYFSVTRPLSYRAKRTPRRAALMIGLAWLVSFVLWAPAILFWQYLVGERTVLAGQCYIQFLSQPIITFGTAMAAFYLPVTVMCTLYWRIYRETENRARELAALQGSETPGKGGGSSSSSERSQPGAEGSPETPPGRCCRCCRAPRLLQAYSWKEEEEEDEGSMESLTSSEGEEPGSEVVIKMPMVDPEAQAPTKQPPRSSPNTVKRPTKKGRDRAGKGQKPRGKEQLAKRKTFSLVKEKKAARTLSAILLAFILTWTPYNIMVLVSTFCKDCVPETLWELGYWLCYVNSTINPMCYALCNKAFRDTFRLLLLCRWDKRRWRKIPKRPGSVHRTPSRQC
# Assay: Displacement of [125I]pirenzepine from human recombinant M1 receptor at 10 uM after 60 mins by scintillation counting analysis relative to control
# Conditions: not given
row,Structure (SMILES),Activity
1,C/C=C/Cn1cc(-c2cc(OC)c(C(=O)N3CCOCC3)cc2OC)c2cc(C)[nH]c2c1=O,-1%

# Target: Insulin receptor (Homo sapiens) (UniProt P06213)
# Sequence (P06213 28-758 limits assumed): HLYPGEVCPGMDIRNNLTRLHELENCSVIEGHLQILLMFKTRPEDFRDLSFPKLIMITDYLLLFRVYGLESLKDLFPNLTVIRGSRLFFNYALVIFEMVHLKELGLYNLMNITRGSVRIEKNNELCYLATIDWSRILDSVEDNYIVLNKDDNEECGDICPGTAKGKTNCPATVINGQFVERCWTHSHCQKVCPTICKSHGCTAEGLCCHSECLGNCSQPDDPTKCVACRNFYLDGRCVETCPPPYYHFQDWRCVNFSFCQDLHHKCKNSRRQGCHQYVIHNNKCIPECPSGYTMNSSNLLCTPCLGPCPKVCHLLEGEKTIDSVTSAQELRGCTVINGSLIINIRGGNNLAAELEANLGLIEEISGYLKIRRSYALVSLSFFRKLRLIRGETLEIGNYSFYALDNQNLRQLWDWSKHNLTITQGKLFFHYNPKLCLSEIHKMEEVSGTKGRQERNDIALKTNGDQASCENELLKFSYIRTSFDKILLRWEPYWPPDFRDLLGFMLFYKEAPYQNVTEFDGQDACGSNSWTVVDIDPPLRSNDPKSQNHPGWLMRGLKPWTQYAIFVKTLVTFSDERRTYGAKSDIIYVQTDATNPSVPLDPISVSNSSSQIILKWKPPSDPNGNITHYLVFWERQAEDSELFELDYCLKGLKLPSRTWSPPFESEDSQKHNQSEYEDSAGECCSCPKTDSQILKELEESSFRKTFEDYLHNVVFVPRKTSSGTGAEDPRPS
# Sequence (P06213 763-1382 limits assumed): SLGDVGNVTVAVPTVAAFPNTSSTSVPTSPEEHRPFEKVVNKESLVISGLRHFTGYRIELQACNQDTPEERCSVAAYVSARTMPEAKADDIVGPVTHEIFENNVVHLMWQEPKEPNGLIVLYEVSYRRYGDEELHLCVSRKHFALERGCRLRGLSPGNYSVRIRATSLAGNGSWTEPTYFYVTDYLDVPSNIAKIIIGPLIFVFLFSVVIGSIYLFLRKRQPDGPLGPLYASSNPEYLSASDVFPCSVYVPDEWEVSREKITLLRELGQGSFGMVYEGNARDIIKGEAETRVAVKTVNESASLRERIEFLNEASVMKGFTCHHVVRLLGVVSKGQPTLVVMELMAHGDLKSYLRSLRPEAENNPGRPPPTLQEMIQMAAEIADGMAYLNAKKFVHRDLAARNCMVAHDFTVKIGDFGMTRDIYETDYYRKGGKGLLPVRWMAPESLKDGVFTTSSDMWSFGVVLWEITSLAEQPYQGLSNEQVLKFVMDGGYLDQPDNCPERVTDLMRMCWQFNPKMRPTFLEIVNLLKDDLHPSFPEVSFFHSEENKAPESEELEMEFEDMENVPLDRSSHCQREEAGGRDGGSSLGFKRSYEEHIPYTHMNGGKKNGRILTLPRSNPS
# Assay: Inhibition of InsR (unknown origin) at 1 uM relative to control
# Conditions: not given
row,Structure (SMILES),inhibition
1,C/C=C/Cn1cc(-c2cc(OC)c(C(=O)N3CCOCC3)cc2OC)c2cc(C)[nH]c2c1=O,3%

# System: LS180
# Assay: Cytotoxicity against human LS180 cells measured after 8 days
# Type: functional, cell-based
# Conditions: LS180, 192 h
row,Structure (SMILES),IC50
1,C/C=C/Cn1cc(-c2cc(OC)c(C(=O)N3CCOCC3)cc2OC)c2cc(C)[nH]c2c1=O,2 µM

# System: HCC1954
# Assay: Cytotoxicity against human HCC1954 cells measured after 8 days
# Type: functional, cell-based
# Conditions: HCC1954, 192 h
row,Structure (SMILES),IC50
1,C/C=C/Cn1cc(-c2cc(OC)c(C(=O)N3CCOCC3)cc2OC)c2cc(C)[nH]c2c1=O,2 µM

# Target: Mitogen-activated protein kinase kinase kinase kinase 4 (Homo sapiens) (UniProt O95819)
# Sequence (O95819 2-1239 limits assumed): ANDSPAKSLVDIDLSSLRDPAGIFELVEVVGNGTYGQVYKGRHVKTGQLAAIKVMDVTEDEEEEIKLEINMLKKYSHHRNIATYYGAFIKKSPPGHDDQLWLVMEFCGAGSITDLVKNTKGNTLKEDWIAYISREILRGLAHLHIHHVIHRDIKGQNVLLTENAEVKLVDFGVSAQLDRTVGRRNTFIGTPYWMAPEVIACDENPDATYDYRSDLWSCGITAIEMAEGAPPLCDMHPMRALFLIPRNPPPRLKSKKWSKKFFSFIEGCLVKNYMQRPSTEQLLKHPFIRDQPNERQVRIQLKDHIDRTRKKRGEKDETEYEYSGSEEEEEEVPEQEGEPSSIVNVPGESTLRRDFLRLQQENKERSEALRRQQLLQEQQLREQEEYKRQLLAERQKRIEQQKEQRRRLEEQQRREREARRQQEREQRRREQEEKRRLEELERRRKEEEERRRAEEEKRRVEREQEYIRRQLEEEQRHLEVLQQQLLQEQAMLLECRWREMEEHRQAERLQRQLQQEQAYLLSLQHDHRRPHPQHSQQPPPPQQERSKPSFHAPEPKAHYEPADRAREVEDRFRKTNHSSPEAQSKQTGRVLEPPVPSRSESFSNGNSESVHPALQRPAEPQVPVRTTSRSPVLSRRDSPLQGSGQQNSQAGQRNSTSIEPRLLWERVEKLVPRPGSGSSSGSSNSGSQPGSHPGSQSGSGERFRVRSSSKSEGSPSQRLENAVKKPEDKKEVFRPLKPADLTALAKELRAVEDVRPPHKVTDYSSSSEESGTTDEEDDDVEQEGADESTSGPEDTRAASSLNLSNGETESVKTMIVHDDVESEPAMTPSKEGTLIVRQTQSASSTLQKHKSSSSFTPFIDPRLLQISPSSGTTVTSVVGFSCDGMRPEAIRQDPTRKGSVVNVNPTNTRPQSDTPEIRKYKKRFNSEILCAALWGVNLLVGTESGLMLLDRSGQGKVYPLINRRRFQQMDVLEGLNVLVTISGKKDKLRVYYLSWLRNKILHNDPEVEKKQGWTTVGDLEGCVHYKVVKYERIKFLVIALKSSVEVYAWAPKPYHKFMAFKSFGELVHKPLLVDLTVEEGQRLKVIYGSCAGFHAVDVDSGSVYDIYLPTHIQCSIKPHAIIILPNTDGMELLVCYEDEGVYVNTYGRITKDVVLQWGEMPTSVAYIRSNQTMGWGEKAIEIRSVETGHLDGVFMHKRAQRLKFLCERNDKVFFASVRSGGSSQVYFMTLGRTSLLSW
# Assay: Inhibition of MAP4K4 (unknown origin) at 1 uM relative to control
# Conditions: not given
row,Structure (SMILES),inhibition
1,C/C=C/Cn1cc(-c2cc(OC)c(C(=O)N3CCOCC3)cc2OC)c2cc(C)[nH]c2c1=O,0%

# System: HEY
# Assay: Cytotoxicity against human HEY cells measured after 8 days
# Type: functional, cell-based
# Conditions: 192 h
row,Structure (SMILES),IC50
1,C/C=C/Cn1cc(-c2cc(OC)c(C(=O)N3CCOCC3)cc2OC)c2cc(C)[nH]c2c1=O,2 µM

# System: MFM-223
# Assay: Cytotoxicity against human MFM-223 cells measured after 8 days
# Type: functional, cell-based
# Conditions: MFM-223, 192 h
row,Structure (SMILES),IC50
1,C/C=C/Cn1cc(-c2cc(OC)c(C(=O)N3CCOCC3)cc2OC)c2cc(C)[nH]c2c1=O,1.46 µM

# Target: Aurora kinase B (Homo sapiens) (UniProt Q96GD4)
# Sequence (Q96GD4 whole entry): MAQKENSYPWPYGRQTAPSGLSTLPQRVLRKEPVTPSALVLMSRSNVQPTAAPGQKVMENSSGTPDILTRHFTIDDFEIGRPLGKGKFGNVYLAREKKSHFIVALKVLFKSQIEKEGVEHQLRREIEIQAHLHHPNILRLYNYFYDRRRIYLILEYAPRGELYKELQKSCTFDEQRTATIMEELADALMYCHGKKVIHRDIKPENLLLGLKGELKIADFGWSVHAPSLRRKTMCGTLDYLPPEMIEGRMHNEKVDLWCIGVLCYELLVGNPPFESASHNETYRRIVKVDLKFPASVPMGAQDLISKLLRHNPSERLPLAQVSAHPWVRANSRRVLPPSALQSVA
# Assay: Inhibition of Aurora B (unknown origin) at 1 uM relative to control
# Conditions: not given
row,Structure (SMILES),inhibition
1,C/C=C/Cn1cc(-c2cc(OC)c(C(=O)N3CCOCC3)cc2OC)c2cc(C)[nH]c2c1=O,4.5%

# System: OCI-AML-5
# Assay: Cytotoxicity against human OCI-AML5 cells measured after 8 days
# Type: functional, cell-based
# Conditions: OCI-AML-5, 192 h
row,Structure (SMILES),IC50
1,C/C=C/Cn1cc(-c2cc(OC)c(C(=O)N3CCOCC3)cc2OC)c2cc(C)[nH]c2c1=O,2 µM

# System: NCI-H1666
# Assay: Cytotoxicity against human NCI-H1666 cells measured after 8 days
# Type: functional, cell-based
# Conditions: NCI-H1666, 192 h
row,Structure (SMILES),IC50
1,C/C=C/Cn1cc(-c2cc(OC)c(C(=O)N3CCOCC3)cc2OC)c2cc(C)[nH]c2c1=O,2 µM

# Species on record: Homo sapiens
# Assay: Displacement of [3H] Dofetilide from human potassium channel at 10 uM relative to control
# Conditions: not given
row,Structure (SMILES),Activity
1,C/C=C/Cn1cc(-c2cc(OC)c(C(=O)N3CCOCC3)cc2OC)c2cc(C)[nH]c2c1=O,18%

# System: not listed separately
# Assay: Cytotoxicity against human HMY-1 cells measured after 8 days
# Type: functional, cell-based
# Conditions: HMY-1, 192 h
row,Structure (SMILES),IC50
1,C/C=C/Cn1cc(-c2cc(OC)c(C(=O)N3CCOCC3)cc2OC)c2cc(C)[nH]c2c1=O,2 µM

# Target: Histone acetyltransferase KAT2A (Homo sapiens, UniProt Q92830)
# Sequence (Q92830 whole entry, the tested form may be a part): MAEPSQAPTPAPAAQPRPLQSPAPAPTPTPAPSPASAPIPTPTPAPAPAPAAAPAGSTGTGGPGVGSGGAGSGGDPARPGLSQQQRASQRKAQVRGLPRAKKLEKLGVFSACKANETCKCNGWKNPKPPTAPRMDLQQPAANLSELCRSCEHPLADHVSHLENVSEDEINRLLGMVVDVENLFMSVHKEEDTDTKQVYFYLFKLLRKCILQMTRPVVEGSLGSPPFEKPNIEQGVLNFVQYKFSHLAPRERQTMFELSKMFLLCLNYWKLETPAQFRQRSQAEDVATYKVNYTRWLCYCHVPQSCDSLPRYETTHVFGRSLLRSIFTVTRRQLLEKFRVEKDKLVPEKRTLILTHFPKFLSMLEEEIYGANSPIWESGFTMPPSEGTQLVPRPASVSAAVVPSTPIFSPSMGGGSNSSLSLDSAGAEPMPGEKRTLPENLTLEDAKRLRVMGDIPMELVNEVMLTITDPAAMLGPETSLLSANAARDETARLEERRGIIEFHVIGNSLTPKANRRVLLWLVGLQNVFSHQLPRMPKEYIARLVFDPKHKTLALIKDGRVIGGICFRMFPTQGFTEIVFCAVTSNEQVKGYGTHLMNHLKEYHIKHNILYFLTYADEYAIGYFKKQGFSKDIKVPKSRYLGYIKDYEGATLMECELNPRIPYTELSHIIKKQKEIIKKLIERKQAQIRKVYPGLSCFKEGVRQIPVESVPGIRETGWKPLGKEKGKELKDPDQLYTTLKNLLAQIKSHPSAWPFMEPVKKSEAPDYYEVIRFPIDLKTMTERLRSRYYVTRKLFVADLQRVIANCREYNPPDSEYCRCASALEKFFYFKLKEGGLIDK
# Assay: Binding affinity to human partial length GCN5L2 (E726 to K837 residues) expressed in bacterial expression system by BROMOscan assay
# Conditions: not given
row,Structure (SMILES),Kd
1,C/C=C/Cn1cc(-c2cc(OC)c(C(=O)N3CCOCC3)cc2OC)c2cc(C)[nH]c2c1=O,> 10 µM

# System: not listed separately
# Assay: Cytotoxicity against human MDST8 cells measured after 8 days
# Type: functional, cell-based
# Conditions: MDST8, 192 h
row,Structure (SMILES),IC50
1,C/C=C/Cn1cc(-c2cc(OC)c(C(=O)N3CCOCC3)cc2OC)c2cc(C)[nH]c2c1=O,2 µM

# System: not listed separately
# Assay: Cytotoxicity against human NCI-H2110 cells measured after 8 days
# Type: functional, cell-based
# Conditions: NCI-H2110, 192 h
row,Structure (SMILES),IC50
1,C/C=C/Cn1cc(-c2cc(OC)c(C(=O)N3CCOCC3)cc2OC)c2cc(C)[nH]c2c1=O,2 µM

# Target: Bromodomain testis-specific protein (Homo sapiens, UniProt Q58F21)
# Assay: Binding affinity to human partial length BRDT bromodomain 1 (N21 to E137 residues) expressed in bacterial expression system by BROMOscan assay
# Conditions: not given
row,Structure (SMILES),Kd
1,C/C=C/Cn1cc(-c2cc(OC)c(C(=O)N3CCOCC3)cc2OC)c2cc(C)[nH]c2c1=O,> 10 µM

# System: HOP-62
# Assay: Cytotoxicity against human HOP-62 cells measured after 8 days
# Type: functional, cell-based
# Conditions: HOP-62, 192 h
row,Structure (SMILES),IC50
1,C/C=C/Cn1cc(-c2cc(OC)c(C(=O)N3CCOCC3)cc2OC)c2cc(C)[nH]c2c1=O,2 µM

# System: LCLC-97TM1
# Assay: Cytotoxicity against human LCLC-97TM1 cells measured after 8 days
# Type: functional, cell-based
# Conditions: LCLC-97TM1, 192 h
row,Structure (SMILES),IC50
1,C/C=C/Cn1cc(-c2cc(OC)c(C(=O)N3CCOCC3)cc2OC)c2cc(C)[nH]c2c1=O,2 µM

# System: HCT-116
# Assay: Cytotoxicity against human HCT-116 cells measured after 8 days
# Type: functional, cell-based
# Conditions: HCT-116, 192 h
row,Structure (SMILES),IC50
1,C/C=C/Cn1cc(-c2cc(OC)c(C(=O)N3CCOCC3)cc2OC)c2cc(C)[nH]c2c1=O,2 µM

# System: A549
# Assay: Cytotoxicity against human A549 cells measured after 8 days
# Type: functional, cell-based
# Conditions: A549, 192 h
row,Structure (SMILES),IC50
1,C/C=C/Cn1cc(-c2cc(OC)c(C(=O)N3CCOCC3)cc2OC)c2cc(C)[nH]c2c1=O,2 µM
